≈ marks a conversion by molar mass, not a printed value.
Experiments:
[1] = test system: Pseudomonas aeruginosa PA14; assay: Lungs of immunosuppressed mice infected with Pseudomonas aeruginosa (2), lung bacterial load; assay type: in vivo; details: 24 hours after infection, day, ip at 2 h, 4 h, 6 h, 8 h
Procedure: Pseudomonas aeruginosa PA14. 60 mice were intraperitoneally injected with 150 mg/kg cyclophosphamide on day 1 and day 4 to give immunosuppressed mice. […] [table] The mice were injected with 50 μL of bacterial solution (2×10^3 CFU) through the airway. 2 hours after the infection, 4 mice in the model group was sacrificed by removing cervical vertebra. Two hours after infection, the drugs were administered by groups, and the mice were administered intraperitoneally once at 2 hours, 4 hours, 6 hours, and 8 hours, a total of 4 times. Mice of each group were sacrificed by removing cervical vertebra 24 hours after infection, lung and kidney tissues were taken aseptically and put into a sterilized tissue homogenate tube, weighed, and an appropriate amount of normal saline (NS) was added, the mixture was homogenized by a homogenizer for 1 min, the lung tissues of the model group were diluted 10^4, 10^5, 10^6 times, the lung tissues of each administration group were diluted 10, 100 times, the kidney tissues of the model group were diluted 10^2, 10^3, 10^4 times, and the lung tissues of each administration group were diluted 10 times, the obtained mixtures were coated on TSA plates using spiral coater, then incubated at 37° C. overnight, and the CFU was counted with a colony counter. Graphpad Prism mapping software was used to make scatter plots of lung tissue CFU. SPSS19.0 software was used to count CFU and average body weight, and analysis of variance was used to analyze differences between groups.

[2] = test system: Acinetobacter baumannii ATCC-BAA-1800; assay: MIC on Acinetobacter baumannii strains; assay type: cell-based; details: ATCCBAA1800, ATCC-BAA-1800, read-out: MIC
Source text: (§1) Twelve strains of Acinetobacter baumannii, A. baumannii ATCC 17978 (ATCC-BAA-1605, ATCC-BAA-1789, ATCC-BAA-1790, ATCC-BAA-1791, ATCC-BAA-1792, ATCC-BAA-1793, ATCC-BAA-1794, ATCC-BAA-1795, ATCC-BAA-1799, ATCC-BAA-1800, ATCC 19606, ATCC 17978) were used to determine the minimum inhibitory concentration (MIC) of the compounds by micro-liquid dilution method according to the Institute of Clinical and Laboratory Standard (CLSI) requirements.

[3] = test system: Acinetobacter baumannii ATCC-BAA-1794; assay: MIC on Acinetobacter baumannii strains; assay type: cell-based; details: ATCCBAA1794, ATCC-BAA-1794, read-out: MIC
Source text: as §1

[4] = test system: Acinetobacter baumannii ATCC-BAA-1799; assay: MIC on Acinetobacter baumannii strains; assay type: cell-based; details: ATCCBAA1799
Source text: as §1

[5] = test system: Acinetobacter baumannii ATCC-BAA-1791; assay: MIC on Acinetobacter baumannii strains; assay type: cell-based; details: ATCCBAA1791
Source text: as §1

[6] = test system: Acinetobacter baumannii ATCC-BAA-1790; assay: MIC on Acinetobacter baumannii strains; assay type: cell-based; details: ATCCBAA1790, ATCC-BAA-1790, read-out: MIC
Source text: as §1

[7] = test system: Acinetobacter baumannii ATCC 17978; assay: MIC on Acinetobacter baumannii strains; assay type: cell-based; details: ATCC17978
Source text: as §1

[8] = test system: Pseudomonas aeruginosa W21; assay: MIC on clinically isolated bacteria; assay type: cell-based; details: read-out: MIC
In short: (§2)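 Clinical strains were selected (twenty-five A. baumannii, twenty-seven P. aeruginosa), then compounds were serially diluted in liquid micro-dilution format following CLSI requirements to find the minimum inhibitory concentration.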

[9] = test system: Pseudomonas aeruginosa W28; assay: MIC on clinically isolated bacteria; assay type: cell-based; details: read-out: MIC
In short: as §2

[10] = test system: Acinetobacter baumannii C332; assay: MIC on clinically isolated bacteria; assay type: cell-based; details: Acinetobacter baumannii C332; read-out: Minimum Inhibitory Concentration (MIC)
In short: as §2

[11] = test system: Pseudomonas aeruginosa W46; assay: MIC on clinically isolated bacteria; assay type: cell-based; details: read-out: MIC
In short: as §2

[12] = test system: Acinetobacter baumannii C401; assay: MIC on clinically isolated bacteria; assay type: cell-based; details: Acinetobacter baumannii C401; read-out: Minimum Inhibitory Concentration (MIC)
In short: as §2

[13] = test system: Pseudomonas aeruginosa W32; assay: MIC on clinically isolated bacteria; assay type: cell-based; details: read-out: MIC
In short: as §2

[14] = test system: Pseudomonas aeruginosa W47; assay: MIC on clinically isolated bacteria; assay type: cell-based; details: read-out: MIC
In short: as §2

[15] = test system: Acinetobacter baumannii C319; assay: MIC on clinically isolated bacteria; assay type: cell-based; details: Acinetobacter baumannii C319; read-out: Minimum Inhibitory Concentration (MIC)
In short: as §2

[16] = test system: Pseudomonas aeruginosa W19; assay: MIC on clinically isolated bacteria; assay type: cell-based; details: read-out: MIC
In short: as §2

[17] = test system: Acinetobacter baumannii C251; assay: MIC on clinically isolated bacteria; assay type: cell-based; details: Acinetobacter baumannii C251; read-out: Minimum Inhibitory Concentration (MIC)
In short: as §2

[18] = test system: Pseudomonas aeruginosa C761; assay: MIC on clinically isolated bacteria; assay type: cell-based; details: read-out: MIC
In short: as §2

[19] = test system: Acinetobacter baumannii C270; assay: MIC on clinically isolated bacteria; assay type: cell-based; details: Acinetobacter baumannii C270; read-out: Minimum Inhibitory Concentration (MIC)
In short: as §2

P. aeruginosa PA 14 = assay: MIC by micro-liquid dilution method (CLSI); assay type: cell-based; details: Pseudomonas aeruginosa, PA14; P. aeruginosa PA 14; read-out: MIC
Source text: (§3) Three strains of Klebsiella pneumonia, K. pneumoniae ATCC BAA-205 (TEM-1/SHV-1/SHV-12), K. pneumoniae ATCC BAA-1705 (KPC-2), K. pneumoniae ATCC BAA-2470 (NDM-1); three strains of Pseudomonas aeruginosa, P. aeruginosa NCTC13437 (VIM-10; VEB-1), P. aeruginosa PA 14 and P. aeruginosa ATCC 35151; four strains of Escherichia coli, E. coli NCTC 13476 (IMP-1 type), E. coli ATCC BAA-2523 (OXA-48), E. coli MG1655Δtol C, E. coli ATCC 25922; one strain of Acinetobacter baumannii, A. baumannii ATCC 17978 and one strain of Staphylococcus aureus, S. aureus NRS384 were used to determine the minimum inhibitory concentration (MIC) of the compounds by micro-liquid dilution method according to the Institute of Clinical and Laboratory Standard (CLSI) requirements.

[20] = test system: E. coli NCTC 13476 (IMP-1 type); assay: MIC by micro-liquid dilution method (CLSI); assay type: cell-based; details: Escherichia coli; E. coli NCTC13476; read-out: MIC
Source text: as §3

E. coli MG1655Δtol C = assay: MIC by micro-liquid dilution method (CLSI); assay type: cell-based; details: Escherichia coli
Source text: as §3

[21] = test system: E. coli ATCC BAA-2523 (OXA-48); assay: MIC by micro-liquid dilution method (CLSI); assay type: cell-based; details: Escherichia coli, ATCCBAA2523; E. coli ATCCBAA-2523; read-out: MIC
Source text: as §3

MIC [8] [µg/mL]	MIC [9] [µg/mL]	MIC [10] [µg/mL]	MIC [11] [µg/mL]	MIC [12] [µg/mL]	MIC [13] [µg/mL]	MIC [14] [µg/mL]	MIC [15] [µg/mL]	MIC [16] [µg/mL]	MIC [17] [µg/mL]	MIC [18] [µg/mL]	MIC [19] [µg/mL]	Structure (SMILES)	other results
0.25 (≈ 0.358 µM)	4 (≈ 5.73 µM)	2 (≈ 2.87 µM)	0.25 (≈ 0.358 µM)	1 (≈ 1.43 µM)	1 (≈ 1.43 µM)	0.5 (≈ 0.717 µM)	2 (≈ 2.87 µM)	0.25 (≈ 0.358 µM)	16 (≈ 22.9 µM)	0.25 (≈ 0.358 µM)	2 (≈ 2.87 µM)	CC1(C)[C@H](NC(=O)/C(=N\O[C@@H](COc2ccc3c(c2)CN(C(=N)NCCCCN)C3)C(=O)O)c2csc(N)n2)C(=O)N1OS(=O)(=O)O [Compound 36]	–
0.5 (≈ 0.704 µM)	4 (≈ 5.64 µM)	2 (≈ 2.82 µM)	2 (≈ 2.82 µM)	1 (≈ 1.41 µM)	4 (≈ 5.64 µM)	2 (≈ 2.82 µM)	2 (≈ 2.82 µM)	1 (≈ 1.41 µM)	8 (≈ 11.3 µM)	1 (≈ 1.41 µM)	2 (≈ 2.82 µM)	CC1(C)[C@H](NC(=O)/C(=N\O[C@@H](COc2ccc3c(c2)CN(C(=N)N[C@@H]2CCCNC2)C3)C(=O)O)c2csc(N)n2)C(=O)N1OS(=O)(=O)O [Compound 41]	LOG10-of bacterial load ([1]; total dosage 20 mg/kg): 4.12 ± 1.50; LOG10-of bacterial load ([1]; total dosage 60 mg/kg): 3.65 ± 2.15
1 (≈ 1.46 µM)	8 (≈ 11.7 µM)	8 (≈ 11.7 µM)	4 (≈ 5.83 µM)	8 (≈ 11.7 µM)	8 (≈ 11.7 µM)	8 (≈ 11.7 µM)	8 (≈ 11.7 µM)	4 (≈ 5.83 µM)	8 (≈ 11.7 µM)	2 (≈ 2.92 µM)	8 (≈ 11.7 µM)	CC1(C)[C@H](NC(=O)/C(=N\O[C@@H](COc2ccc3c(c2)CN(C(=N)NOCCN)C3)C(=O)O)c2csc(N)n2)C(=O)N1OS(=O)(=O)O [Compound 43]	–

Structure (SMILES)	MIC [8] [µg/mL]	MIC [9] [µg/mL]	MIC [10] [µg/mL]	MIC [11] [µg/mL]	MIC [12] [µg/mL]	MIC [13] [µg/mL]	MIC [14] [µg/mL]	MIC [15] [µg/mL]	MIC [16] [µg/mL]	MIC [17] [µg/mL]	MIC [18] [µg/mL]	MIC [19] [µg/mL]	other results
C[C@H]1[C@H](NC(=O)/C(=N\OC(C)(C)C(=O)O)c2csc(N)n2)C(=O)N1S(=O)(=O)O [Aztreonam, reference compound]	16 (≈ 36.7 µM)	32 (≈ 73.5 µM)	64 (≈ 147 µM)	16 (≈ 36.7 µM)	32 (≈ 73.5 µM)	32 (≈ 73.5 µM)	16 (≈ 36.7 µM)	64 (≈ 147 µM)	16 (≈ 36.7 µM)	32 (≈ 73.5 µM)	8 (≈ 18.4 µM)	64 (≈ 147 µM)	LOG10-of bacterial load ([1]; total dosage 100 mg/kg): 6.91 ± 1.63; MIC [2]: 32 µg/mL (≈ 73.5 µM); MIC [3]: 32 µg/mL (≈ 73.5 µM); MIC [4]: 128 µg/mL (≈ 294 µM); MIC [5]: 32 µg/mL (≈ 73.5 µM); MIC [6]: 32 µg/mL (≈ 73.5 µM); MIC [7]: 32 µg/mL (≈ 73.5 µM); MIC (P. aeruginosa PA 14): 8 µg/mL (≈ 18.4 µM); MIC [20]: 0.25 µg/mL (≈ 0.574 µM); MIC (E. coli MG1655Δtol C): ≤ 0.125 µg/mL; MIC [21]: 16 µg/mL (≈ 36.7 µM)

From patent US11459323B2, “Monocyclic β-lactam compound for treating bacterial infection” (MEDSHINE DISCOVERY INC., priority 2018, dated 2022)
